Earlier results, collected in patent publication US20060178351A1, “Treatment of immune-mediated disorders with active vitamin D compounds alone or in combination with other therapeutic agents” (Novacea, Inc., priority 2003, published 2006).

Details: relative to an equal dose of calcitriol

Hypercalcemic effect compared to calcitriol: reduced hypercalcemic effect
SMILES: C=C1/C(=C\C=C2/CCC[C@]3(C)C([C@H](C)CC#CC(C)(C)O)=CC[C@@H]23)C[C@@H](O)C[C@@H]1O [Ro23-7553]
